What was measured:
[1] = test system: monoarthritis; experiment: Monoarthritis chronic pain model (complete Freund's adjuvant), paw pressure test; assay type: in vivo, Sprague-Dawley rats; details: PTX administered for 10 days, effect up to 21 days
Procedure: Sprague-Dawley rats weighing approximately 100 g were used. This model was described by Butler (Butler et al, 1992). He was inoculated into the right paw (tibio-tarsal fourth) of rats with 50 uL of complete Freund's adjuvant containing 300 ug Mycobacterium butiricum. This injection produces a localized arthritis syndrome and found to be stable between four and six post-inoculation, weeks During this period there is an establishment of neurogenic pain and hyperalgesia, and this pain is held for more than two months period. Control rats were injected with the vehicle only Mycobacterium butiricum.
All doses of nanoparticles or free drugs were administered by intrathecal (it) in a maximum volume of […], dissolved in artificial cerebrospinal fluid (LCA: 1.3 mm CaCl2, KCl 2.8 mm, 0.9 mm MgCl2, NaHCO3 20 mM, 2.5 mM Na 2 HPO 7H2O, 125 mM NaCl). The injection i.t. it involves administration of the drug into the subarachnoid space between lumbar vertebrae L5 and L6 (Mestre et al, 1994) using a Hamilton syringe with a needle 26Gx1/2”. The entrance to the subarachnoid space evidenced by a slight movement in the tail of the rat, due to the mechanical stimulation of the needle to penetrate the spinal cord meninges. […]

[2] = test system: primary cultures of activated microglia; details: LPS-activated microglia treated with propentofylline; cited from earlier work

| SMILES | effect on threshold of pain, pressure test of the leg [1] | production of tumor necrosis factor (TNF), IL-1β and radicals oxygen [2] |
| --- | --- | --- |
| CC(=O)CCCCn1c(=O)c2c(ncn2C)n(C)c1=O [PTX, 3,7-dimethyl-1-(5-oxo-hexyl)xanthine] | lowers the threshold of pain | – |
| CCCn1cnc2c1c(=O)n(CCCCC(C)=O)c(=O)n2C [propentofylline, 3-methyl-1-(5-oxo-hexyl)-7-propylxanthine] | – | inhibition |

Reference: US20150283095A1, “NANOPARTICLES WITH BIODEGRADABLE AND BIOCOMPATIBLE POLYMER PLGA, LOADED WITH THE DRUG FOR HUMAN USE PENTOXIFYLLINE” (UNIVERSIDAD DE SANTIAGO DE CHILE, priority 2012, published 2015)
